This note sets out measurements from US20230009608A1, “GRK2 INHIBITORS AND USES THEREOF” (Cygnal Therapeutics, Inc., priority 2020, published 2023).

Broadly, the IC50 is the concentration needed to halve the response being measured.

This test has as its target T1, GRK2 (Homo sapiens, UniProt P25098).
T1 construct: purchased SignalChem A14-10G
T1 sequence (P25098 1-689): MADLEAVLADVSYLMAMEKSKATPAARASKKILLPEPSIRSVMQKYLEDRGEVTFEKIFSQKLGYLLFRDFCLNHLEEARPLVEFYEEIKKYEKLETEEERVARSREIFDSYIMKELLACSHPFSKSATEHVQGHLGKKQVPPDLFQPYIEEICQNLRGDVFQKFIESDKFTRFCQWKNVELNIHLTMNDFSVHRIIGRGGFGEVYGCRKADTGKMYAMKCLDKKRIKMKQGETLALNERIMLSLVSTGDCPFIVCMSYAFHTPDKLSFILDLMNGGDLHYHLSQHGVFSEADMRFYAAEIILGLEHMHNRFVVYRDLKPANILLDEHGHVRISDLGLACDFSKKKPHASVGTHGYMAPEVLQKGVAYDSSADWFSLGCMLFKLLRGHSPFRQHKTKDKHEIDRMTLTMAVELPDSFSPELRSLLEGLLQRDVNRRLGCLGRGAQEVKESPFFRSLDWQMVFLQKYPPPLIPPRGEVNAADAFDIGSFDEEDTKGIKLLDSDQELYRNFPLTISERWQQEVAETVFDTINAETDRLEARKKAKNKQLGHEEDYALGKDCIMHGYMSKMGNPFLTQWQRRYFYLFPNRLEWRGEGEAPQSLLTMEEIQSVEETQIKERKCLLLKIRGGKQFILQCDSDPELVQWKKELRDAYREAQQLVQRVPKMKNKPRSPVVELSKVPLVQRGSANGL
The test is described as follows: ADPGlo GRK2 Inhibition Assay (Example 8). The format is biochemical. The following applies: ADPGlo GRK2 enzyme assay; read-out: A: Enzymatic GRK2: IC50 (nM) (Example 8). As to the method: HTS was performed using 1 μM compound.
Compounds were dissolved in 100% DMSO, serially diluted tree-fold from 100 μM concentration to 46 nM and transferred (50 nL) into assay ready plate.
Materials: GRK2 was purchased from SignalChem (Cat #A14-10G, Lot #X^645-3). Substrate GRKtide was from SignalChem (Cat #G46-58, Lot #R339-6). ADP-Glo Kinase Assay from Promega (Cat #V9102). Assay buffer consisted of 25 mMv HEPES (pH7.5), 10 mMv MgCl2, 0.01% Tween-20, 1 mM DDT. 384-well white plates were from Greiner […] (Item #784075).
HTS protocol: Take 384 well plate with 50 nL of compound in columns 3-22/DMSO solution 1-2,23-24. Add 2.5 μL assay buffer to columns 23 and 24 using Thermo Scientific Multidrop Combi Dispenser. Add 2.5 μL of 2× enzyme solution (15 nM in 1× assay buffer) using Thermo Scientific Multidrop Combi Reagent Dispenser to all columns except of 23 and 24. Incubate for 15 minutes. Fill plate with 2.5 μL of 2× substrate mix (20 μM ATP and 0.6 mg/nt GRKtide in Ix assay buffer) using Thermo Scientific Multidrop Combi Reagent Dispenser. Spin 15 seconds at 1000 rpm and incubate for 180 min at room temperature. Add 5 μL ADP-Glo reagent to all the wells. Spin 15 seconds at 1000 rpm and incubate for 40 min at room temperature. Add 10 μL Detection solution to all the wells. Incubate for 30 min at room temperature. Read plate in Luminescent modeon BMG PheraStar FSX (gain=3600).
Data Analysis: Data were analyzed in GraphPad Prism 8.0.2. Each HTS plate contains compounds in columns 3-22, controls (enzyme, no compound) in columns 1 and 2, and blanks (no enzyme) in columns 23 and 24. HTS percent inhibition was calculated for each compound from the signal in luminescence units and the mean of the plate controls and the mean of the plate blanks using the following equation: % Inhibition=100*(1−((signal-blank mean)/(control mean-blank mean))). At the final stage of data processing, we obtain dose-response curves, tables and SDF-files with the results of screening for each substance.
Background: ADP-Glo turns the ADP formed in a reaction into a luminescent signal.
With `Cn1c(CNc2cccc(C(=O)NCc3ccccc3CN3CCC(O)C3)c2)nnc1-c1ccncn1` (stereo not drawn), the IC50 is 136 nM.
Next, `Cn1c(CNc2cccc(C(=O)NCc3ccncc3OCC3CCOC3)c2)nnc1-c1ccncn1` (stereo not drawn): 871 nM; `CC(C)NS(=O)(=O)Cc1ccccc1CNC(=O)c1cccc(NCc2nnc(-c3ccncn3)n2C)c1`: 69.8 nM; `Cn1c(CNc2cccc(C(=O)NCc3c4c(n[nH]c3=O)CCCC4)c2)nnc1-c1ccncn1`: 531 nM.
As for `Cn1c(CNc2cccc(C(=O)NCc3nccnc3O)c2)nnc1-c1ccncn1`, the figure is 728 nM.
Next, `Cc1ncc(CNC(=O)c2cccc(NCc3nnc(-c4ccncn4)n3C)c2)c(O)n1`: 382 nM; `Cn1c(CNc2cccc(C(=O)NCc3cc(Br)cnc3O)c2)nnc1-c1ccncn1`: 103 nM; `Cn1c(CNc2cccc(C(=O)NC3(c4ncccc4F)CC3)c2)nnc1-c1ccncn1`: 104 nM.
With `CN(C)c1cccnc1CNC(=O)c1cccc(NCc2nnc(-c3ccncn3)n2C)c1`, the concentration for half-maximal inhibition (IC50) worked out at 120 nM.
As for `CC(O)C(NC(=O)c1cccc(NCc2nnc(-c3ccncn3)n2C)c1)c1ccccc1F` (stereo not drawn), the figure is 209 nM; as for `Cn1c(CNc2cccc(C(=O)NCc3cccnc3-n3cccn3)c2)nnc1-c1ccncn1`, 146 nM.
For the molecule `CCN1CCN(Cc2ccccc2CNC(=O)c2cccc(NCc3nnc(-c4ccncn4)n3C)c2)CC1`, the IC50 was determined as 267 nM.
Next, `Cn1c(CNc2cccc(C(=O)NC(CO)c3c(F)cccc3F)c2)nnc1-c1ccncn1` (stereo not drawn): 146 nM; `Cn1c(CNc2cccc(C(=O)NCc3ccccc3-n3cccn3)c2)nnc1-c1ccncn1`: 184 nM; `Cn1c(CNc2cccc(C(=O)NCc3cccnc3N3CCOCC3)c2)nnc1-c1ccncn1`: 176 nM.
As for `Cn1c(CNc2cccc(C(=O)NCc3ccccc3OCCN3CCOCC3)c2)nnc1-c1ccncn1`, the figure is 145 nM; as for `Cc1ccccc1C(CN1CCOCC1)NC(=O)c1cccc(NCc2nnc(-c3ccncn3)n2C)c1` (stereo not drawn), 505 nM.
Regarding `COc1cccc2c1CCC2(CO)NC(=O)c1cccc(NCc2cnc(-c3ccncn3)n2C)c1` (stereo not drawn), the half-maximal inhibitory concentration (IC50) stood at 134 nM.
Regarding `Cn1c(CNc2cccc(C(=O)NC3(CO)CCc4ccccc43)c2)cnc1-c1ccncn1` (stereo not drawn), the IC50 was 929 nM.
For the molecule `Cn1c(CNc2cccc(C(=O)NC3(CO)CCCc4ccccc43)c2)nnc1-c1ccncn1` (stereo not drawn), the IC50 worked out at 651 nM.
In the case of `Cn1c(CNc2cccc(C(=O)NC3(CO)CCOc4ccccc43)c2)nnc1-c1ccncn1` (stereo not drawn), the half-maximal inhibitory concentration (IC50) stood at 283 nM.
As for `CN1CCc2ccccc2C(NC(=O)c2cccc(NCc3nnc(-c4ccncn4)n3C)c2)C1=O` (stereo not drawn), the figure is 253 nM; as for `Cn1c(CNc2cccc(C(=O)NC3CCCc4[nH]c(=O)ccc43)c2)nnc1-c1ccncn1` (stereo not drawn), 392 nM; as for `Cn1c(CNc2cccc(C(=O)NC3CCCS(=O)(=O)c4ccccc43)c2)nnc1-c1ccncn1` (stereo not drawn), 194 nM.
On to `Cn1c(CNc2cccc(C(=O)NC3CNCCc4ccccc43)c2)nnc1-c1ccncn1` (stereo not drawn), for which the 50% inhibitory concentration (IC50) turned out to be 142 nM.
As for `CN1CCN(Cc2ccccc2CNC(=O)c2cccc(NCc3nnc(-c4ccncn4)n3C)c2)CC1`, the figure is 159 nM.
Next, `Cn1c(CNc2cccc(C(=O)NCc3cccnc3-n3cncn3)c2)nnc1-c1ccncn1`: 119 nM; `CNc1cccnc1CNC(=O)c1cccc(NCc2nnc(-c3ccncn3)n2C)c1`: 133 nM.
As for `Cn1c(CNc2cccc(C(=O)NCc3ncccc3S(C)(=O)=O)c2)nnc1-c1ccncn1`, the figure is 172 nM; as for `COc1cccc(CCNC(=O)c2cccc(NCc3nnc(-c4ccncn4)n3C)c2)c1`, 340 nM.
On to `Cn1c(CNc2cccc(C(=O)NCc3cnn(C(C)(C)C)c3)c2)nnc1-c1ccncn1`, for which the IC50 was 135 nM.
Next, `C[C@H](NC(=O)c1cccc(NCc2nnc(-c3ccncn3)n2C)c1)c1ccc(Cl)cn1`: 950 nM.
Consider `COc1ccc([C@H](C)NC(=O)c2cccc(NCc3nnc(-c4ccncn4)n3C)c2)cc1`, for which the IC50 came to 593 nM.
As for `Cn1c(CNc2cccc(C(=O)NCc3ccc(CO)c(F)c3)c2)nnc1-c1ccncn1`, the figure is 103 nM.
Consider `Cn1c(CNc2cccc(C(=O)NCc3ccc(O)nc3)c2)nnc1-c1ccncn1`, for which the half-maximal inhibitory concentration (IC50) was determined as 203 nM.
As for `Cn1c(CNc2cccc(C(=O)NCC3(c4ccccn4)CC3)c2)nnc1-c1ccncn1`, the figure is 526 nM; as for `Cc1c[nH]c(=O)c(CNC(=O)c2cccc(NCc3nnc(-c4ccncn4)n3C)c2)c1`, greater than 1000 nM.
Regarding `Cn1c(CNc2cccc(C(=O)NCc3cc4n(n3)CCC4)c2)nnc1-c1ccncn1`, the half-maximal inhibitory concentration (IC50) was greater than 1000 nM.
Next, `CCc1ccc(CNC(=O)c2cccc(NCc3nnc(-c4ccncn4)n3C)c2)nc1`: 271 nM; `Cn1c(CNc2cccc(C(=O)NCc3ccc(O)c(F)c3)c2)nnc1-c1ccncn1`: 118 nM; `Cc1cnc(CCNC(=O)c2cccc(NCc3nnc(-c4ccncn4)n3C)c2)c(C)c1`: 432 nM.
As for `Cc1ccc(CNC(=O)c2cccc(NCc3nnc(-c4ccncn4)n3C)c2)nc1C`, the figure is 182 nM.
As for `Cn1c(CNc2cccc(C(=O)NC3(c4ncc[nH]4)CC3)c2)nnc1-c1ccncn1`, the figure is 748 nM; as for `COc1ccc(CNC(=O)c2cccc(NCc3nnc(-c4ccncn4)n3C)c2)cc1`, 913 nM; as for `Cn1c(CNc2cccc(C(=O)NC3CCn4nccc4C3)c2)nnc1-c1ccncn1` (stereo not drawn), 133 nM.
With `CC(Cc1ccccn1)NC(=O)c1cccc(NCc2nnc(-c3ccncn3)n2C)c1` (stereo not drawn), the 50% inhibitory concentration (IC50) turned out to be 290 nM.
For the molecule `Cn1c(CNc2cccc(C(=O)NC(C)(CO)c3ccccn3)c2)nnc1-c1ccncn1` (stereo not drawn), the IC50 stood at 511 nM.
Next, `Cn1c(CNc2cccc(C(=O)NC(CO)c3ccccn3)c2)nnc1-c1ccncn1` (stereo not drawn): 177 nM.
Next, `Cn1c(CNc2cccc(C(=O)NC3CCCn4nccc43)c2)nnc1-c1ccncn1` (stereo not drawn): 171 nM.
Next, `CC(Cc1nccn1C)NC(=O)c1cccc(NCc2nnc(-c3ccncn3)n2C)c1` (stereo not drawn): 732 nM.
Regarding `Cn1c(CNc2cccc(C(=O)NCC3Cc4ccccc4O3)c2)nnc1-c1ccncn1` (stereo not drawn), the IC50 is 208 nM.
In the case of `CCn1ccnc1C(C)NC(=O)c1cccc(NCc2nnc(-c3ccncn3)n2C)c1` (stereo not drawn), the half-inhibitory concentration (IC50) came to 189 nM.
Next, `CC(C)C(NC(=O)c1cccc(NCc2nnc(-c3ccncn3)n2C)c1)c1nccn1C` (stereo not drawn): 152 nM; `Cc1nc2c(c(C)c1CNC(=O)c1cccc(NCc3nnc(-c4ccncn4)n3C)c1)c(=O)[nH]n2C`: 181 nM; `Cn1c(CNc2cccc(C(=O)NC3CCCc4c3ccc(=O)n4C)c2)nnc1-c1ccncn1` (stereo not drawn): greater than 1000 nM.
As for `CN1CCN(S(=O)(=O)c2ccccc2CNC(=O)c2cccc(NCc3nnc(-c4ccncn4)n3C)c2)CC1`, the figure is 344 nM; as for `COc1ccc([C@H](C)NC(=O)c2cccc(NCc3nnc(-c4ccncn4)n3C)c2)c(OC)c1`, 310 nM.
Take `COc1ccc([C@@H](C)NC(=O)c2cccc(NCc3nnc(-c4ccncn4)n3C)c2)c(OC)c1`: the half-maximal inhibitory concentration (IC50) came out at 8.56 nM.
As for `COc1ccccc1[C@H](NC(=O)c1cccc(NCc2nnc(-c3ccncn3)n2C)c1)c1noc(C)n1`, the figure is 741 nM; as for `COc1ccccc1[C@@H](NC(=O)c1cccc(NCc2nnc(-c3ccncn3)n2C)c1)c1noc(C)n1`, 333 nM.
In the case of `CCCCCOc1ccc2c(c1)[C@H](NC(=O)c1cccc(NCc3nnc(-c4ccncn4)n3C)c1)CCO2`, the half-inhibitory concentration (IC50) worked out at 732 nM.
As for `CCCCCOc1ccc2c(c1)[C@H](NC(=O)c1cccc(NCc3nnc(-c4ccncn4)n3C)c1)CO2`, the figure is 550 nM; as for `C[C@@H](NC(=O)c1cccc(NCc2nnc(-c3ccncc3)n2CCO)c1)c1ncccc1Cl`, 11.9 nM.
